Data taken from patent EP0727211A1, “Use of src SH2 specific compounds to treat a bone resorption disease” (SMITHKLINE BEECHAM CORPORATION, priority 1995, dated 1996).

Biological target: T1, human lck SH2 domain (Homo sapiens, UniProt P06239)
T1 construct: Cloning and expression of human lck SH2 domain containing tags and an enterokinase proteolytic cleavage site; made in house; host or cells: E. coli AR120
Experiment: SH2 domain / pY peptide binding assay (ELISA-based, 96 well plate), lck SH2
Conditions: Ki calculated from IC50 by the expanded equation; Table II
Description: The inhibitory activity of compounds at the different human SH2 domains was determined in vitro using SH2 domains expressed as fusion proteins in E. coli. The SH2 domains used herein were the human forms of the src SH2 domain, Grb2 SH2 domain, lck SH2 domain, fyn SH2 domain, SH-PTP2 SH2 domain, p85 SH2 domain and hcp SH2 domain.
The fusion proteins containing the src, lck and hcp SH2 domains were expressed as the general sequence: DET1-DET2-spacer-ek-SH2, where DETI, DET2, spacer, ek and SH2 are as described below. DET1 ("defined epitope tag 1") (SEQ ID NO: 1) is an 11 amino acid sequence found in the Human Immunodeficiency Virus Type 1 (HIV-1) envelope protein gp120 (or gp160). Monoclonal antibodies to various epitopes of HIV-1 gp120 (or gp160) are known in the art, see, for example U.S. Patent 5,166,050. One preferred example is monoclonal antibody 178.1 (see, e.g., Thiriart et al., J. Immunol., 143:1832-1836 (1989)), which was prepared by immunization of mice with a yeast-expressed HIV-1 gp160 molecule from strain BH10 (Ratner et al., Nature, 313:277-284 (1985)). This tag was used for detection of expression (by Western blot), for purification of the protein (by affinity chromatography), and for configuring assays in which the fusion protein was captured or immobilized using the 178.1 antibody. DET2 is a hexahistidine sequence tag (SEQ ID NO: 2) which binds to nickel-containing resins and was used for purification purposes. Spacer (SEQ ID NO: 3) was utilized to design a BamH1 restriction site at the indicated position of the construct. The term -ekrefers to a recognition sequence (SEQ ID NO: 4) for the enterokinase protease which provides for the optional removal of the tags from the SH2 domain, thus producing an SH2 domain that contains no extraneous amino acids. SH2 domains which contain no extraneous amino acids are preferable to tagged protein for crystallography studies. SH2 refers to the SH2 domains of different proteins.
Cloning and expression of human lck SH2 domain containing tags and an enterokinase proteolytic cleavage site (DET1-DET2-spacer-ek-lck SH2).
A DNA sequence encoding protein ek-lck SH2 was PCR amplified from a cDNA clone containing the human lck gene (Genbank accession number M36881) using the following primers: [formula]
The PCR product was digested with BamHI and XbaI, followed by isolation of the digested fragment on an agarose gel. The fragment was ligated into BamHI-XbaI-digested expression vector containing the tagged chicken src gene DET1-DET2-spacer-SH2 described in Procedure 1 above. In that vector, the BamHI site is located in between the coding regions for DET2 and SH2, and the XbaI site is located after the 3' end of the SH2 coding region. Thus, the ek-lck SH2 sequence replaced the src SH2 sequence in the above vector. The ligation reaction was used to transform E. coli MM294cI^+. The construct containing […] was confirmed by DNA sequencing (SEQ ID NO: 6) and induced in E. coli strain AR120 as described in Procedure 1 above. A Coomassie-Blue-stained, Western-blot-positive induced protein band with an apparent molecular weight of 17,000 was observed after nalidixic acid induction.
Cells were lysed at neutral pH by sonication in the presance of lysozyme. After centrifugation, the soluble extract was chromatographed on a Ni^++NTA column. After washing the column with equilibration buffer (Tris buffer pH 8 containing 0.5 M NaCl) and the same buffer containing 15 mM imidazole, the protein was eluted in highly purified form with 25 mM imidazole in equilibration buffer.
The binding assays for the SH2 domains and pY peptides were performed in an ELISA-based 96 well plate assay. In Millipore 96 well filter plates, hydrophilic Durapore® (pore size 0.65um Cat. No. MADVN6550), was added 2 ul (50% suspension) of Protein-G Sepharose (available from Pharmacia of N.J. Cat. No. 17-0618-01) and either 2 ul of 2 mg/ml of MAB178. […]

T1 sequence (P06239 127-224 limits assumed): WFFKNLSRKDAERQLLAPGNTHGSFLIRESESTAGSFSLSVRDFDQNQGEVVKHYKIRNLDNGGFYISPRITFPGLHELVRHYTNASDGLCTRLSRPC

Ki: 50 µM
SMILES: CCCCCCNC(=O)[C@H]1CC[C@H](CNC(=O)c2ccc(C(=O)c3ccc(C(=O)O)cc3)cc2)CC1 [Compound 6, 4-carboxy-benzophenone-4-carboxamido-trans-4-methyl-cyclohexyl-N-hexyl carboxamide]
